Structures are written as SMILES.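 Assay format: 96-well plates, 48-hour exposure. GI50: concentration for 50% inhibition of growth.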 Active and inactive are the calls of the source. Rule as the data show it: active = GI50 up to about 1.1 µM and inactive = higher.

Data on 12 compounds can be found in ChEMBL document CHEMBL1201862, “PubChem BioAssay data set” (2004).

What all share (test): inhibition of tumour cell growth, NCI panel, 48 h
For experiment [1], the system named is EKVX.
The test system of experiment [2] is HL-60.
Experiment [3] relates to HOP-62.
Experiment [4] concerns HT-29.
For experiment [5], the system named is K562.
Experiment [6] relates to Malme-3M.
For experiment [7], the system named is OVCAR-3.
In experiment [8] the test system is OVCAR-4.
Experiment [9] relates to OVCAR-5.
Experiment [10] deals with OVCAR-8.
Experiment [11] relates to SK-MEL-5.
In experiment [12] the test system is SNB-75.
For experiment [13], the system named is TK-10.
Experiment [14] deals with UACC-62.
In experiment [15] the test system is UO-31.
For experiment [16], the system named is Hs-578T.
Experiment [17] concerns MCF7.
Experiment [18] concerns NCI-H522.
Experiment [19] relates to T47D.

As to `O=C1c2cccc3cc([N+](=O)[O-])cc(c23)C(=O)N1CCCN1CCN(CCCN2C(=O)c3cccc4cc([N+](=O)[O-])cc(c34)C2=O)CC1`, the GI50 in [1] was 0.612 µM (active); in experiment [2], 0.34 µM (active); in experiment [3], 2.88 µM (inactive); in experiment [4], < 0.01 µM (active); in [5], 0.0232 µM (active); in [6] it was 0.571 µM (active). In addition, the GI50 in [7] is 1.09 µM (active); in experiment [8], 0.0925 µM (active); in experiment [9], 1.65 µM (inactive); in experiment [10], < 0.01 µM (active); in experiment [11], 0.0853 µM (active); in [12], 1.38 µM (inactive). The GI50 is 0.798 µM (active) in experiment [13], 0.0579 µM (active) in experiment [14] and 0.0695 µM (active) in [15].
For `Cc1cc(C)c2c(c1)CC1(Cc3c(C)cc(C)cc3C1=O)C2=O` (centres undefined), the GI50 was > 100 µM (inactive) in experiment [1]; > 100 µM (inactive) in [2]; > 100 µM (inactive) in experiment [16]; > 100 µM (inactive) in experiment [5]; > 100 µM (inactive) in experiment [17]; 92.9 µM (inactive) in [6]. In addition, the GI50 in experiment [18] was > 100 µM (inactive); in experiment [7], > 100 µM (inactive); in experiment [8], 46.3 µM (inactive); in experiment [9], > 100 µM (inactive); in experiment [10], > 100 µM (inactive); in [11], > 100 µM (inactive). For the same compound, the GI50 in [12], in [13], in experiment [14] and in [15] was > 100 µM (inactive) each time.
For `COC(=O)CNC(=O)CNC(=O)CSc1nnc(COc2ccc(Cl)cc2)n1-c1ccccc1`, the GI50 is > 100 µM (inactive) in experiment [1]; > 100 µM (inactive) in [3]; > 100 µM (inactive) in [4]; 23.2 µM (inactive) in [16]; 30.1 µM (inactive) in [5]; > 100 µM (inactive) in experiment [17]. Also, the GI50 in experiment [6] is 18.7 µM (inactive); in [18], 5.46 µM (inactive); in experiment [7], 19.8 µM (inactive); in experiment [8], > 100 µM (inactive); in experiment [9], > 100 µM (inactive); in [10], > 100 µM (inactive). The GI50 was 22.4 µM (inactive) in experiment [11]; 25.4 µM (inactive) in [12]; 44.5 µM (inactive) in [13]; 17.5 µM (inactive) in experiment [14]; 21.4 µM (inactive) in experiment [15].
For `O=c1c2c3c(sc2nc2n1sc1nc4sc5c(c4c(=O)n12)CCCC5)CCCC3`, the GI50 was 12 µM (inactive) in [1]; 27.2 µM (inactive) in experiment [2]; > 100 µM (inactive) in experiment [3]; 41.2 µM (inactive) in [4]; 39.6 µM (inactive) in [16]; 25.1 µM (inactive) in experiment [5]. Also, the GI50 in experiment [17] was 23.8 µM (inactive); in experiment [18], 10.8 µM (inactive); in experiment [7], 24.2 µM (inactive); in experiment [8], 18.7 µM (inactive); in experiment [9], > 100 µM (inactive); in experiment [10], 56.6 µM (inactive). Also, the GI50 in [11] is > 100 µM (inactive); in experiment [13] it was 89.1 µM (inactive); in [14], 10.9 µM (inactive); in [15] it was 18.5 µM (inactive).
Regarding `CC(=O)OC1CCN(C(=O)c2ccccc2)CC1CC1(c2cc3ccccc3[nH]2)OCCO1` (centres undefined), the GI50 was 83 µM (inactive) in [1]; 24.2 µM (inactive) in experiment [2]; > 100 µM (inactive) in [3]; > 100 µM (inactive) in experiment [4]; 30.1 µM (inactive) in experiment [5]; > 100 µM (inactive) in experiment [17]. For the same compound, the GI50 was > 100 µM (inactive) in [6]; 78.9 µM (inactive) in experiment [18]; 53.1 µM (inactive) in experiment [7]; 77.3 µM (inactive) in experiment [8]; > 100 µM (inactive) in experiment [9]; 73.1 µM (inactive) in experiment [10]. Moreover, the GI50 in experiment [11] was 44 µM (inactive); in experiment [12], 49.4 µM (inactive); in experiment [19], 34 µM (inactive); in experiment [13], 53.2 µM (inactive); in experiment [14] it was 36.6 µM (inactive); in experiment [15] it was 29 µM (inactive).
As for `CN(C)CCNC(=O)c1cc(NC(=O)c2cc(NC(=O)CC/C=C3/[C@@H]4CC[C@H]3N=N4)cn2C)cn1C`, the GI50 in [1], in experiment [2], in experiment [3], in [4], in experiment [16] and in experiment [5] was > 100 µM (inactive) in each case. Further, the GI50 in experiment [17] is > 100 µM (inactive); in [6], 70.3 µM (inactive); in experiment [18] it was > 100 µM (inactive); in [7] it was > 100 µM (inactive); in experiment [8] it was > 100 µM (inactive); in experiment [9] it was > 100 µM (inactive). Also, the GI50 in [10], in [11], in experiment [12], in [13] and in experiment [15] was > 100 µM (inactive) throughout.
On to `O=C(c1cc2ccccc2cc1O)N1CCCCC1`, for which the GI50 in [1] was 20.3 µM (inactive); in experiment [2], 20.4 µM (inactive); in [3], 27.4 µM (inactive); in [4], 25.6 µM (inactive); in [16] it was 46 µM (inactive); in [5] it was 21.6 µM (inactive). The GI50 in experiment [17] is 26.4 µM (inactive); in experiment [8] it was 37.7 µM (inactive); in [10], 20.8 µM (inactive); in [11] it was 20 µM (inactive); in [12] it was 31.5 µM (inactive); in experiment [19], 37.6 µM (inactive). For the same compound, the GI50 in [13] is > 100 µM (inactive); in experiment [14], 31.4 µM (inactive); in [15], 40.5 µM (inactive).
As for `CCOP(=O)(Cc1nc(C#N)c(N)o1)OCC`, the GI50 in [1], in experiment [2], in experiment [3], in experiment [4], in [16] and in experiment [5] was > 100 µM (inactive) throughout. Besides, the GI50 in experiment [17], in [6], in experiment [18], in experiment [7], in experiment [8] and in experiment [9] was > 100 µM (inactive) throughout. Further, the GI50 in [11], in experiment [13] and in [14] was > 100 µM (inactive) throughout.
`CC(=O)O[C@H]1CC[C@H]2[C@@H]3CCC4=CC(=O)C=C[C@]4(O)[C@H]3CC[C@]12C`: the GI50 in [1] was 31.7 µM (inactive); in experiment [3], > 100 µM (inactive); in [5] it was 7.66 µM (inactive); in [17], 26.7 µM (inactive); in experiment [7] it was 42.1 µM (inactive); in experiment [8], > 48.9 µM (inactive). Besides, the GI50 in experiment [9] was > 100 µM (inactive); in experiment [10], 19.1 µM (inactive); in experiment [11], 4.6 µM (inactive); in experiment [12] it was 14.7 µM (inactive); in experiment [19], 13.3 µM (inactive); in experiment [13], > 100 µM (inactive). Also, the GI50 is 42.3 µM (inactive) in experiment [14] and 55.5 µM (inactive) in [15].
`Cc1cn(CCCCOC(=O)NC(CCCNC(N)=O)C(=O)O)c(=O)[nH]c1=O` (centres undefined): the GI50 in experiment [1], in experiment [2], in experiment [3], in experiment [4], in [16] and in experiment [5] was > 100 µM (inactive) throughout. Also, the GI50 in experiment [17], in [7], in [8], in experiment [9], in [10] and in experiment [12] was > 100 µM (inactive) throughout. The GI50 in experiment [19], in [13], in [14] and in experiment [15] was > 100 µM (inactive) in each case.
With `CCN1CCN(c2nc3ccc([N+](=O)[O-])cc3nc2C(=O)c2ccccc2)CC1`, the GI50 in [1] was 16.1 µM (inactive); in [2] it was 26.2 µM (inactive); in experiment [3], 20.1 µM (inactive); in [5], 6.31 µM (inactive); in experiment [17], 18.3 µM (inactive); in experiment [6], 13.1 µM (inactive). Besides, the GI50 in experiment [18] was 2.67 µM (inactive); in [7], 16.8 µM (inactive); in [9], 20.1 µM (inactive); in [10], 16.8 µM (inactive); in experiment [19], 26.7 µM (inactive); in experiment [13] it was 19.9 µM (inactive). For the same compound, the figures for the GI50 in experiment [14] and in [15] were 16.9 µM (inactive) and 12.6 µM (inactive), respectively.
Consider `COc1ccc(C2(c3ccc(OC)cc3)OC(=O)c3cccc4cccc2c34)cc1`, for which the GI50 is 2.76 µM (inactive) in [1]; 6.98 µM (inactive) in experiment [3]; 2.4 µM (inactive) in [4]; 9.51 µM (inactive) in experiment [16]; 3.36 µM (inactive) in [5]; 4.78 µM (inactive) in [17]. For the same compound, the GI50 in [6] is 5.37 µM (inactive); in [7] it was 4.81 µM (inactive); in experiment [8], 4.85 µM (inactive); in experiment [9], > 100 µM (inactive); in [10], 15.7 µM (inactive); in experiment [11], 5.25 µM (inactive). Besides, the GI50 was 2.24 µM (inactive) in [19], 5.94 µM (inactive) in experiment [13], 5.28 µM (inactive) in experiment [14] and > 100 µM (inactive) in experiment [15].
